According to US10676504B2 (Colorado State University Research Foundation, priority 2015, dated 2020):
Where two headings read alike, the source gives them in different places. Values belong to the compound of their own block, whether it stands above or below them.

Tests used:
[1] = target: T1, HDAC3 (Homo sapiens, UniProt O15379); assay: HDAC biochemical assay of P5-P12 (Table P1)
T1 construct: The recombinant, full-length HDAC protein (BPS Biosciences) was incubated; purchased BPS Biosciences

[2] = target: HDAC1 (Homo sapiens, UniProt Q13547); assay: HDAC biochemical assay of P5-P12 (Table P1); set-up: The recombinant, full-length HDAC protein (BPS Biosciences) was incubated; purchased BPS Biosciences
Sequence of HDAC1 (Q13547 whole entry): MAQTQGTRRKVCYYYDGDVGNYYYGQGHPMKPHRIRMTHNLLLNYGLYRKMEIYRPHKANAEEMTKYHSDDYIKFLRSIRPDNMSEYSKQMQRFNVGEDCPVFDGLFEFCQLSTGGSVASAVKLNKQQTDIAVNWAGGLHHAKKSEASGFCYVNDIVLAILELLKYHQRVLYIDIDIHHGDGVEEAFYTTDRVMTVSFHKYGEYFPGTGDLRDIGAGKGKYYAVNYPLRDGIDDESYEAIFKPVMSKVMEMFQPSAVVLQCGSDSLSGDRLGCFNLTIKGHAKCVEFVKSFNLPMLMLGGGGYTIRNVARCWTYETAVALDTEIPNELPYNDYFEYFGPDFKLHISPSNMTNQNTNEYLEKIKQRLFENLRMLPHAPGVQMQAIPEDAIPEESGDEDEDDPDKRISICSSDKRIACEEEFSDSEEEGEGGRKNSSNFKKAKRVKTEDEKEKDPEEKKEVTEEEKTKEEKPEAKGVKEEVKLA

[3] = target: T2, HDAC2 (Homo sapiens, UniProt Q92769); assay: HDAC biochemical assay of P5-P12 (Table P1); set-up: The recombinant, full-length HDAC protein (BPS Biosciences) was incubated; purchased BPS Biosciences
T2 sequence (Q92769 whole entry): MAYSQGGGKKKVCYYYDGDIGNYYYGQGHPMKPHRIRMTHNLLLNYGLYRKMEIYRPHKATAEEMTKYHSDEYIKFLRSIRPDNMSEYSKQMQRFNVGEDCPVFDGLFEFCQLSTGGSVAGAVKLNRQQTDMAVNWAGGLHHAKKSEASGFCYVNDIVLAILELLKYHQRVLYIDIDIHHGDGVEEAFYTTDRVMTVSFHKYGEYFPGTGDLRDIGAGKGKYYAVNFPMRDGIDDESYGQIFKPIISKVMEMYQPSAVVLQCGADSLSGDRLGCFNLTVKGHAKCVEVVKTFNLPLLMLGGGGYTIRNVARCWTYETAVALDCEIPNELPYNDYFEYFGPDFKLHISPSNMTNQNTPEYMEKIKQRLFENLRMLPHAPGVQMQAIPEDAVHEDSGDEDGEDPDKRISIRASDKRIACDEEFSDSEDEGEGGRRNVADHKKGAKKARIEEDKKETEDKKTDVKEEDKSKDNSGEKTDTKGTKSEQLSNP

[4] = tested on: NCI-60 cancer cell lines; conditions: five-dose
[5] = tested on: colon cancer cell lines
Source text: (§1) All compounds submitted for screening were initially tested at a single high dose (10^-5 M) against the fill NCI 60 cell panel. Only compounds which satisfied pre-determined threshold inhibition criteria in a minimum number of cell lines progressed to a second round of testing utilizing a more comprehensive 5-dose inhibition assay. The threshold inhibition criteria for progression to the 5-dose assays were selected to efficiently capture compounds with anti-proliferative activity based on historical DTP screening data.
(§2) Concentrations for G150, IC50, TGI, and LC50 were calculated for all cell lines tested, and heat plots were prepared.

[6] = tested on: renal cancer cell lines
Source text: as §1, §2

[7] = tested on: NCI-60 cancer cell lines; assay: cells
[8] = tested on: colon cancer cell lines; assay: cells; conditions: read-out: Average Concentration (M), LC50, Colon
Source text: as §1, §2

[9] = tested on: melanoma cell lines; assay: cells; conditions: read-out: Average Concentration (M), LC50, Melanoma
Source text: as §1, §2

[10] = target: T2, HDAC2; assay: HDAC2 inhibition, trypsin-coupled kinetic fluorescence homogeneous assay (Example 10); assay type: biochemical; set-up: The recombinant, full-length HDAC protein (BPS Biosciences) was incubated; purchased BPS Biosciences; conditions: Conc (uM); logistic curve fit of activity versus concentration; some fits reached max iterations; read-out: X50
Procedure: To measure the inhibitory effect on deacetylase function in vitro, a continuous kinetic biochemical assay miniaturized to 384-well plate format was optimized.
Fluorescence measurements were obtained in real-time on a Varioskan microtiter plate reader (Thermo).
A biochemical study of HDAC2 inhibition was carried out using the trypsin-coupled, kinetic fluorescence homogeneous assay described above.

[11] = tested on: HDACs 1-3; assay: HDAC biochemical assay of P5-P12, summary statements
[12] = target: T3, HDAC3/NCor2 (Homo sapiens, UniProt O15379); assay: HDAC biochemical assay (Example 16)
T3 construct: recombinant, full-length HDAC protein; purchased BPS Biosciences
T3 sequence (O15379 whole entry): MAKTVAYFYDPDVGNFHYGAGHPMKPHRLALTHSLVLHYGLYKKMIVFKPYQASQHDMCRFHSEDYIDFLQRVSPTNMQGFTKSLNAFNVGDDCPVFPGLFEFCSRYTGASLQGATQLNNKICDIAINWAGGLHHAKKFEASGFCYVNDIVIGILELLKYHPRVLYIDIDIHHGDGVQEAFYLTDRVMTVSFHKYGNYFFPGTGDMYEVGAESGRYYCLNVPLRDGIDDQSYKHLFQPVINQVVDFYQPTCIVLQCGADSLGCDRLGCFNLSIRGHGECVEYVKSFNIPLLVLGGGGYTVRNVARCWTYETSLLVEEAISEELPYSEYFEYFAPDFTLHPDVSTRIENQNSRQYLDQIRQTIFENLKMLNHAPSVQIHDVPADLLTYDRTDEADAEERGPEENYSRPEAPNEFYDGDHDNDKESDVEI
T3 sequence (Q9Y618 395-489 partner limits assumed): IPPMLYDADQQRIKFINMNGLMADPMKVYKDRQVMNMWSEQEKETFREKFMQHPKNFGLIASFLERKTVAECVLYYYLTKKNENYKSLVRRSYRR
Procedure: Thus, small-molecule inhibitors were arrayed at twelve-point dose-response (3-fold increments) in 384-well library plates and transferred by robotic pin device to replicate assay plates containing assay buffer under reducing conditions (TCEP 200 μM). A liquid handling device then transferred a tripeptide substrate terminating in acetyl-lysine and amide conjugated to 4-methyl-7-aminocoumarin (AMC), recombinant human histone deacetylase (BPS Bioscience, San Diego, Calif.), and recombinant human trypsin (Sigma-Aldrich, St. Louis, Mo.). Following deacetylase hydrolysis of acetyl-lysine, trypsin cleavage liberated the AMC fluorophore. Kinetic (fluorescence per unit time) and end-point (total fluorescence) data were captured by a multilabel plate reader. Replicate data were analyzed by curve-fit using logistic regression (Spotfire Decision-Site).

[13] = read-out: GI50 concentrations (M), order of magnitude

T1 sequence (O15379 whole entry): as the sequence (O15379 whole entry) above
T1 sequence (Q9Y618 395-489 partner limits assumed): as the sequence (Q9Y618 395-489 partner limits assumed) above

SMILES: CCCCCCCC(=O)SCC/C=C/[C@@H]1CC(=O)NCc2nc(cs2)C2=N[C@@](C)(CS2)C(=O)N[C@@H](C(C)C)C(=O)N1 [Largazole peptide isostere]
- IC50 [1]: 1150 nM
- IC50 [2]: 544 nM
- IC50 [3]: 825 nM

SMILES: CC(C)[C@@H]1NC(=O)[C@]2(C)CSC(=N2)c2ccnc(c2)CNC(=O)C[C@@H](/C=C/CCSC(c2ccccc2)(c2ccccc2)c2ccccc2)OC1=O
- ring closure, yield of all isomers (from CC(C)[C@H](NC(=O)[C@]1(C)CSC(c2ccnc(CNC(=O)OC(C)(C)C)c2)=N1)C(=O)O[C@H](/C=C/CCSC(c1ccccc1)(c1ccccc1)c1ccccc1)CC(=O)OCC[Si](C)(C)C, amide bond, HATU/HOBt/DIPEA, acetonitrile, 1.0 mM, 18.0 h, 2 steps): 23%

SMILES: CC(C)[C@@H]1NC(=O)[C@]2(C)CSC(=N2)c2cccc(n2)CNC(=O)C[C@@H](/C=C/CCSC(c2ccccc2)(c2ccccc2)c2ccccc2)NC1=O
- ring closure, yield of all isomers (from COC(=O)C[C@@H](/C=C/CCSC(c1ccccc1)(c1ccccc1)c1ccccc1)NC(=O)[C@@H](NC(=O)[C@]1(C)CSC(c2cccc(CNC(=O)OC(C)(C)C)n2)=N1)C(C)C, amide bond, HATU/HOBt/DIPEA, acetonitrile, 0.97 mM, 3 steps): 33%

- IC50 ([1]; Table P1): 320 nM
- IC50 ([2]; Table P1): 340 nM
- IC50 ([3]; Table P1): 655 nM
SMILES: CCCCCCCC(=O)SCCC=CC1CC(=O)NCc2cc(ccn2)C2=NC(C)(CS2)C(=O)NC(C(C)C)C(=O)O1 (centres unmarked) [Compound P7, Depsipeptide Pyridyl “OUT”]

SMILES: CCCCCCCC(=O)SCC/C=C/[C@@H]1CC(=O)NCc2cccc(n2)C2=N[C@@](C)(CS2)C(=O)N[C@@H](C(C)C)C(=O)O1 [compound of formula bb]
- Percent of Cell Lines Impacted (%), GI50 ([4]; 50% Growth Inhibition): 100%
- Percent of Cell Lines Impacted (%), LC50 ([4]; 50% Lethal Concentration reached): 12%
- Percent of Cell Lines Impacted (%), TGI ([4]; Total Growth Inhibition): 47%
- Total Impacted Cell Lines (n), TGI ([4]; Total Growth Inhibition): 27
- Total Impacted Cell Lines (n), LC50, Colon [5]: 2
- Percent of Cell Lines Impacted (%), LC50, Colon ([5]; five-dose): 29%
- Total Impacted Cell Lines (n), LC50, Renal [6]: 2
- Percent of Cell Lines Impacted (%), LC50, Renal ([6]; five-dose): 25%
- GI50 ([7]; read-out: Average Concentration (M), GI50): 7.62e-08 M
- CC50 [8]: 1.29e-05 M
- CC50 [9]: 7.01e-07 M

SMILES: CC(C)[C@@H]1NC(=O)[C@]2(C)CSC(=N2)c2ccnc(c2)CNC(=O)C[C@@H](/C=C/CCSC(c2ccccc2)(c2ccccc2)c2ccccc2)NC1=O
- ring closure, yield of all isomers (from COC(=O)C[C@@H](/C=C/CCSC(c1ccccc1)(c1ccccc1)c1ccccc1)NC(=O)[C@@H](NC(=O)[C@]1(C)CSC(c2ccnc(CNC(=O)OC(C)(C)C)c2)=N1)C(C)C, amide bond, HATU/HOBt/DIPEA, acetonitrile, 0.97 mM, 3 steps): 32%

SMILES: CC(C)[C@@H]1NC(=O)[C@]2(C)CSC(=N2)c2cccc(n2)CNC(=O)C[C@@H](/C=C/CCSC(c2ccccc2)(c2ccccc2)c2ccccc2)OC1=O
- ring closure, yield of all isomers (from CC(C)[C@H](NC(=O)[C@]1(C)CSC(c2cccc(CNC(=O)OC(C)(C)C)n2)=N1)C(=O)O[C@H](/C=C/CCSC(c1ccccc1)(c1ccccc1)c1ccccc1)CC(=O)OCC[Si](C)(C)C, amide bond, HATU, acetonitrile, 0.96 mM, 18.0 h, 2 steps): 20%

- IC50 [10]: 0.0785 µM
SMILES: CC(C)[C@@H]1NC(=O)[C@]2(C)CSC(=N2)c2csc(n2)CNC(=O)C[C@@H](/C=C/CCCCS)OC1=O [ab6_162alr1 n + 2 thiol]

SMILES: CCCCCCCC(=O)SCC/C=C/[C@@H]1CC(=O)NCc2cccc(n2)C2=N[C@@](C)(CS2)C(=O)N[C@@H](C(C)C)C(=O)O1 [drawing 79]
- GI50 [7, 13]: 1e-08 M

SMILES: CC(C)[C@@H]1NC(=O)[C@]2(C)CSC(=N2)c2csc(n2)CNC(=O)C[C@@H](/C=C/CCSC(c2ccccc2)(c2ccccc2)c2ccccc2)NC1=O
- ring closure, yield of all isomers (from COC(=O)C[C@@H](/C=C/CCSC(c1ccccc1)(c1ccccc1)c1ccccc1)NC(=O)[C@@H](NC(=O)[C@]1(C)CSC(c2csc(CNC(=O)OC(C)(C)C)n2)=N1)C(C)C, amide bond, HATU/iPr2NEt, MeCN, 0.96 mM, 3 steps): 50%

- IC50 ([1]; Table P1): 332 nM
- IC50 ([2]; Table P1): 340 nM
- IC50 ([3]; Table P1): 472 nM
SMILES: CCCCCCCC(=O)SCCC=CC1CC(=O)NCc2cccc(n2)C2=NC(C)(CS2)C(=O)NC(C(C)C)C(=O)N1 (centres unmarked) [Compound P9, Peptide Isostere Pyridyl “IN”]

SMILES: CCCCCCCC(=O)SCC/C=C/[C@@H]1CC(=O)NCc2nc(cs2)C2=N[C@@](C)(CS2)C(=O)N[C@@H](C(C)C)C(=O)N1 [drawing 78]
- GI50 [7, 13]: 1e-07 M

SMILES: CC(C)[C@@H]1NC(=O)[C@@]2(C)CSC(=N2)c2csc(n2)CNC(=O)C[C@H](/C=C/CCSC(c2ccccc2)(c2ccccc2)c2ccccc2)OC1=O
- ring closure, yield of all isomers (from CC(C)[C@H](NC(=O)[C@@]1(C)CSC(c2csc(CNC(=O)OC(C)(C)C)n2)=N1)C(=O)O[C@@H](/C=C/CCSC(c1ccccc1)(c1ccccc1)c1ccccc1)CC(=O)OCC[Si](C)(C)C, amide bond, 2 steps): 87%

- IC50 ([1]; Table P1): 846 nM
- IC50 range in words for HDACs 1-3 [11]: high nM-μM range
- IC50 ([2]; Table P1): 817 nM
- IC50 ([3]; Table P1): 1240 nM
SMILES: CCCCCCCC(=O)SCC/C=C/[C@@H]1CC(=O)NCc2cc(ccn2)C2=N[C@@](C)(CS2)C(=O)N[C@@H](C(C)C)C(=O)N1 [Compound P11, Peptide Isostere Pyridyl “OUT”]

SMILES: CC(=O)N[C@@H](CC(C)C)C(=O)N[C@@H](CC(C)C)C(=O)N[C@H](C=O)CCCNC(=N)N [Leupeptin, reference compound]
- IC50 [10]: 0.308 µM

- IC50 ([1]; Table P1): 332 nM
- IC50 ([2]; Table P1): 204 nM
- IC50 ([3]; Table P1): 350 nM
SMILES: CCCCCCCC(=O)SCCC=CC1CC(=O)NCc2cccc(n2)C2=NC(C)(CS2)C(=O)NC(C(C)C)C(=O)O1 (centres unmarked) [Compound P5, Depsipeptide Pyridyl “IN”]

- IC50 ([1]; Table P1): 42.5 nM
- IC50 range in words for HDACs 1-3 [11]: double-digit nM range
- IC50 ([2]; Table P1): 42 nM
- IC50 ([3]; Table P1): 69.8 nM
SMILES: CC(C)[C@@H]1NC(=O)[C@]2(C)CSC(=N2)c2cccc(n2)CNC(=O)C[C@@H](/C=C/CCS)NC1=O [Compound P10, Peptide Isostere Pyridyl “IN” Thiol]

SMILES: CC(C)[C@@H]1NC(=O)[C@]2(C)CSC(=N2)c2csc(n2)CNC(=O)C[C@@H](/C=C/CCCC(=O)Nc2ccccc2N)OC1=O [Benzamide (12b)]
- IC50 [12]: 14000 nM

SMILES: CC(C)[C@@H]1NC(=O)[C@]2(C)CSC(=N2)c2coc(n2)CNC(=O)C[C@@H](/C=C/CCSC(c2ccccc2)(c2ccccc2)c2ccccc2)OC1=O
- ring closure, yield of all isomers (from CC(C)[C@H](NC(=O)[C@]1(C)CSC(c2coc(CNC(=O)OC(C)(C)C)n2)=N1)C(=O)O[C@H](/C=C/CCSC(c1ccccc1)(c1ccccc1)c1ccccc1)CC(=O)OCC[Si](C)(C)C, amide bond, T3P, DCM, 0.99 mM, 2 steps): 35%

SMILES: C[C@@]12CSC(=N1)c1csc(n1)CNC(=O)C[C@@H](/C=C/CCSC(c1ccccc1)(c1ccccc1)c1ccccc1)OC(=O)[C@@H]1CCCN1C2=O
- ring closure, yield of all isomers (from CC(C)(C)OC(=O)NCc1nc(C2=N[C@](C)(C(=O)N3CCC[C@H]3C(=O)O[C@H](/C=C/CCSC(c3ccccc3)(c3ccccc3)c3ccccc3)CC(=O)OCC[Si](C)(C)C)CS2)cs1, amide bond, HATU/iPr2NEt, MeCN, 0.83 mM, 2 steps): 43%
